Assay results reported in US20120238532A1, “TREATMENT OF HUMAN OSTEOSARCOMA” (CEDARS-SINAI MEDICAL CENTER, priority 2009, published 2012).

Legend:
MG-63 cells [1] = test: MTT assay, MG-63 (dose-response, pulse-exposure, combination); format: cell-based, human; conditions: Homo sapiens, MTT, 48 hours of exposure, read-out: ED50 (the source's name)
Procedure: 7 human OS cell lines (U2OS, G292, MG-63, HT-161, HOS, SAOS-2, and SJSA) were used in the study. Each cell line except HT-161 was obtained from the American Type Culture Collection (ATCC, Rockville, Md.). HT-161 was obtained from Dr. Emil Bogenmann (13). All cell lines were tested and authenticated prior to use according to cell line verification test recommendations by ATCC. OS cell lines were maintained in DMEM medium (Mediatech Inc., Herndon, Va.) supplemented with 10% fetal bovine serum (FBS; Atlanta Biological, Lawrenceville, Ga.) in a humidified incubator at 37° C. supplied with 5% CO2. Only the cells in exponential growth phase were used in the study.
Cell growth and survival were measured by 3-(4,5-dimethylthiazol-2-yl)-2,5-diphenyltetrazolium bromide (MTT) assay. […] After 48 hours of incubation, 10 μl of 5 mg/ml MTT solution (Sigma-Aldrich, St. Louis, Mo.) was added to each well and incubated further for 2 hours. […] For pulse-exposure experiments, MG-63 and SAOS-2 cells were seeded in 96-well plates and exposed to CuB at their ED50. After 2, 9, and 20 hours of exposure, cells were washed twice with PBS and incubated further in CuB-free media. Cell growth was checked by MTT assay at 24, 48, and 72 hours.
Calcusyn 2.0 (Biosoft, Ferguson, Mo.) was used for CI analysis.

MG-63 cells [2] = test: Cell cycle analysis (PI, FACS), MG-63; format: cell-based, human; conditions: alone at ED50 (50 nM)
Procedure: (§1) Cells were harvested and fixed with 70% ethanol at regular time intervals. Fixed cells were stained with propidium iodide (PI) for flow cytometry analysis using BD FACScan (BD Biosciences, San Jose, Calif.). Distribution of cell cycle was analyzed by ModFit LT V2.0 software (Verity Software House, Topsham, Me.). […] After 24, 48, and 72 hours of exposure, cells were harvested and stained with PI and fluorescein isothiocyanate (FITC) using Annexin V-FITC apoptosis detection kit (BD Biosciences) according to the manufacturer's protocol. Cells were subjected to flow cytometry analysis within one hour of staining.

MG-63 cells [3] = test: Annexin V-FITC apoptosis assay, MG-63; format: cell-based, human; conditions: at ED50, 72 hours of exposure
Procedure: as §1

MG-63 xenografts [4] = test: Growth of MG-63 xenografts in athymic nude mice; format: in vivo; conditions: LD-MTX 150 mg/kg, single agent
Procedure: All animal experiments strictly followed the guidelines of Cedars-Sinai Medical Center and the National Institute of Health (NIH). Female nu/nu athymic nude mice (5-6 weeks old; average weight 21 g; specific pathogen-free) from Harlan Laboratories (Indianapolis, Ind.) were maintained in pathogen-free condition with sterilized chow and water. 5×10^6 cells of MG-63 cells were mixed with 200 μl of Matrigel solution (BD Biosciences) per injection, and the mixture was injected subcutaneously on the upper flanks of nude mice. After 24 hours, tumor size was measured, and any outliers were ruled out by one-way analysis of variance (ANOVA) test. […] The conversion was made using dose translation formula by Reagan-Shaw et al., (15). […] Body weights were monitored every 2 days. Tumor size was measured every 2 days, and the tumor volume was calculated using the following formula: A (length)×B (width)×C (height)×0.5236 (16). The experiment was stopped at day 35, and all mice were sacrificed. The presence of metastatic spread was examined macroscopically at the time of autopsy followed by histological examination. At least two tumors from each group were snap-frozen in liquid nitrogen for Western blotting.

[5] = Body weight and side-effects during xenograft treatment; format: in vivo, mice; conditions: LD-MTX 150 mg/kg
Procedure: All animal experiments strictly followed the guidelines of Cedars-Sinai Medical Center and the National Institute of Health (NIH). Female nu/nu athymic nude mice (5-6 weeks old; average weight 21 g; specific pathogen-free) from Harlan Laboratories (Indianapolis, Ind.) were maintained in pathogen-free condition with sterilized chow and water. 5×10^6 cells of MG-63 cells were mixed with 200 μl of Matrigel solution (BD Biosciences) per injection, and the mixture was injected subcutaneously on the upper flanks of nude mice. After 24 hours, tumor size was measured, and any outliers were ruled out by one-way analysis of variance (ANOVA) test. […] The dose of LD-MTX was the murine equivalent of the human dose of LD-MTX. The conversion was made using dose translation formula by Reagan-Shaw et al., (15). […] Body weights were monitored every 2 days. Tumor size was measured every 2 days, and the tumor volume was calculated using the following formula: A (length)×B (width)×C (height)×0.5236 (16). The experiment was stopped at day 35, and all mice were sacrificed. The presence of metastatic spread was examined macroscopically at the time of autopsy followed by histological examination. At least two tumors from each group were snap-frozen in liquid nitrogen for Western blotting.

MG-63 xenografts [6] = test: Immunohistochemistry of xenografts (HE, Ki-67, TUNEL); format: in vivo, mice; conditions: LD-MTX 150 mg/kg; day 35
Source text: (§2) At autopsy, tumors and internal organs including liver, spleen, kidneys were excised, weighed, and then fixed in 10% PBS-buffered formalin and maintained in 70% ethanol. For IHC, fixed tumors and organs were embedded in paraplast (Oxford Labware, St. Louis, Mo.), cut in 6 μm thick sections, and stained with hematoxylin and eosin (HE) for histopathological examination.
For Ki-67 proliferation assay, tumor sections were deparaffinized with xylene and rehydrated through graded ethanol. Endogenous peroxidase activity was blocked with 3% hydrogen peroxide in methanol. […] After incubation, tumor sections were stained with diaminobenzidine (DAB) and counterstained with hematoxylin. Terminal deoxynucleotidyl transferase dUTP nick end labeling (TUNEL) apoptosis assay was performed using ApopTaq Plus Peroxidase In Situ Apoptosis Kit (Millipore) according to the manufacturer's protocol. Percent positive cells in representative microscopic fields were counted using ImageJ (17).

Organ weight in mice = format: in vivo; conditions: LD-MTX 150 mg/kg; day 35
Source text: as §2

Blood counts in mice = format: in vivo; conditions: LD-MTX 150 mg/kg; day 35
Procedure: (§3) Whole blood samples were obtained by submandibular bleeding and serum samples were harvested with serum separator tubes (BD Biosciences). Blood count and serum chemistry results were obtained by the Hemagen Analyst Benchtop Chemistry System (Hemagen Diagnostics, Inc. Columbia, Md.). Colony-forming cell (CFC) assays were performed as previously described (18).

Serum chemistry in mice = format: in vivo; conditions: LD-MTX 150 mg/kg; day 35
Procedure: as §3

human OS cells = conditions: LD-MTX alone; xenograft studies using murine models (refs 24, 37); cited from earlier work
[7] = system: clonogenic hematopoietic cells; test: Colony-forming cell (CFC) assays of bone marrow; conditions: LD-MTX 150 mg/kg; day 35; 2 × 10^4 cells/well
Procedure: as §3

For CN(Cc1cnc2nc(N)nc(N)c2n1)c1ccc(C(=O)N[C@@H](CCC(=O)O)C(=O)O)cc1 [MTX, methotrexate, reference compound], the EC50 (MG-63 cells [1]) was 50 nM, the “earliest sign of S-phase arrest” value (MG-63 cells [2]) was 48 h and the apoptotic cells (MG-63 cells [3]) was 30%. The tumor volume (MG-63 xenografts [4]) was “allowed the tumor volume to increase slightly from its original size”, the “mice with sluggish movements, occasional diarrhea, and a patchy skin rash” value [5] was 60% and the body weight loss ([5]; some mice, 48 hours after MTX injection) was 10%. For the same compound, the HE-stained tumors (MG-63 xenografts [6]) was “less number of blood vessels”, the Kidney organ weight (Organ weight in mice) was 345 ± 1 mg and the Liver organ weight (Organ weight in mice) was 1120 ± 21 mg. For the same compound, the Spleen organ weight (Organ weight in mice) was 135 ± 7 mg, the Basophils (Blood counts in mice) was 0.00 ± 0.00 K/μl and the Eosinophils (Blood counts in mice) was 0.00 ± 0.00 K/μl. For the same compound, the Lymphocytes (Blood counts in mice) was 4.05 ± 0.58 K/μl, the Monocytes (Blood counts in mice) was 0.17 ± 0.04 K/μl and the Neutrophills (Blood counts in mice) was 0.56 ± 0.42 K/μl. For the same compound, the RBCs (Blood counts in mice) was 7.69 ± 0.16 M/μl, the WBCs (Blood counts in mice) was 4.80 ± 0.99 K/μl and the CK (Serum chemistry in mice) was 183.0 ± 140 U/l. The bilirubin (Serum chemistry in mice) was 0.12 ± 0.00 mg/dL, the cholesterol (Serum chemistry in mice) was 148.5 ± 24.7 mg/dL and the creatine (Serum chemistry in mice) was 0.39 ± 0.21 mg/dL. For the same compound, the globulin (Serum chemistry in mice) was 1.3 ± 0.4 g/dL, the total protein (Serum chemistry in mice) was 4.6 ± 0.7 g/dL and the uric acid (Serum chemistry in mice) was 4.7 ± 0.8 mg/dL. For the same compound, the “growth inhibition of human OS cells” value (human OS cells) was < 20%, the “BFU-E, number of colonies” value [7] was 7.1 ± 0.8 and the “CFU-GEMM, number of colonies” value [7] was 3.4 ± 0.5. For the same compound, the “CFU-GM, number of colonies” value [7] was 64.6 ± 3.6.
